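How tested: cells in 96-well plates exposed to compound for 48 hours at five concentrations. At the GI50, growth is halved. TGI marks complete inhibition of growth.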
Experiments:
Assay in all cases: NCI tumour cell line growth inhibition, 48 h
[1] = test system: T-47D breast
[2] = test system: SK-MEL-2 melanoma
[3] = test system: OVCAR-8 ovarian
[4] = test system: OVCAR-4 ovarian
[5] = test system: SNB-75 CNS
[6] = test system: NCI-H460 lung
[7] = test system: COLO 205 colon
[8] = test system: IGROV1 ovarian
[9] = test system: SW-620 colon
[10] = test system: KM12 colon

SMILES	TGI [1]	TGI [2]	TGI [3]	TGI [4]	TGI [5]	TGI [6]	TGI [7]	TGI [8]	TGI [9]	TGI [10]	GI50 [1]	GI50 [2]	GI50 [3]	GI50 [4]	GI50 [5]	GI50 [6]	GI50 [7]	GI50 [8]	GI50 [9]	GI50 [10]
COC(=O)C1OC(O[C@H]2CC[C@]3(C)[C@H]4CC=C5[C@@H]6CC(C)(C)CC[C@]6(C(=O)OC)CC[C@@]5(C)[C@]4(C)CC[C@H]3C2(C)C)C(O)C(O)C1O (stereo not given in full)	40.9 µM	31.9 µM	31.2 µM	30.6 µM	31.1 µM	25.7 µM	29.9 µM	37.4 µM	34.6 µM	20.7 µM	–	–	–	–	–	–	–	–	–	–
c1ccc(CN2CCC(=NN3CCCCC3)CC2)cc1	> 100 µM	> 100 µM	> 100 µM	> 100 µM	> 100 µM	> 100 µM	99.5 µM	> 100 µM	> 100 µM	> 100 µM	–	–	–	–	–	–	–	–	–	–
O=C(N/N=C(/COc1ccccc1)N=Cc1ccncc1)c1ccncc1	> 100 µM	> 100 µM	> 100 µM	> 100 µM	> 100 µM	> 100 µM	> 100 µM	> 100 µM	> 100 µM	> 100 µM	–	–	–	–	–	–	–	–	–	–
C1=N[C@]23C(=N[C@H](N=C2NCc2ccco2)[C@]24N=CNC2=N[C@H]3N=C4NCc2ccco2)N1	> 100 µM	> 100 µM	> 100 µM	> 100 µM	> 100 µM	> 100 µM	> 100 µM	> 100 µM	> 100 µM	> 100 µM	> 100 µM	> 100 µM	> 100 µM	65 µM	67.1 µM	> 100 µM	> 100 µM	> 100 µM	> 100 µM	> 100 µM
O=C(Nc1ccccc1)c1cc2ccccc2c(N=Nc2cccc([N+](=O)[O-])c2)c1O	> 100 µM	> 100 µM	> 100 µM	> 100 µM	> 100 µM	> 100 µM	> 100 µM	> 100 µM	> 100 µM	> 100 µM	–	–	–	–	–	–	–	–	–	–
Cn1c(N/N=C/c2ccccc2)nc(-c2ccc3c(c2)OCO3)c(C#N)c1=O	> 100 µM	> 100 µM	90.6 µM	> 100 µM	> 100 µM	> 100 µM	> 100 µM	> 100 µM	> 100 µM	> 100 µM	–	–	–	–	–	–	–	–	–	–
CC(C)C[S+]1C2=C([O-])CC(C)(C)CC2=Nc2ccccc21 (stereo not given)	> 100 µM	> 100 µM	> 100 µM	> 100 µM	> 100 µM	> 100 µM	> 100 µM	> 100 µM	> 100 µM	> 100 µM	–	–	–	–	–	–	–	–	–	–
CC(=O)N1C(C(=O)NN2CCOCC2)CSC1c1ccccc1 (stereo not given)	> 100 µM	> 100 µM	> 100 µM	> 100 µM	> 100 µM	> 100 µM	> 100 µM	> 100 µM	> 100 µM	> 100 µM	–	–	–	–	–	–	–	–	–	–
COc1ccc(C=Nc2ccc(-c3nc4ccccc4s3)cc2)cc1OC	81.2 µM	48.1 µM	> 100 µM	> 100 µM	75.7 µM	67.6 µM	39.6 µM	86.4 µM	> 100 µM	> 100 µM	–	–	–	–	–	–	–	–	–	–
C[C@@H]1C[C@H]2OC(=O)[C@@]3(C)CCC[C@@](C)([C@@H]23)[C@@]1(O)CCc1ccoc1	> 100 µM	> 100 µM	> 100 µM	> 100 µM	> 100 µM	> 100 µM	> 100 µM	> 100 µM	> 100 µM	> 100 µM	–	–	–	–	–	–	–	–	–	–
Nc1nc(Cl)cc(NCC2(CO)CCCCC2)n1	> 100 µM	> 100 µM	> 100 µM	> 100 µM	> 100 µM	> 100 µM	> 100 µM	> 100 µM	> 100 µM	> 100 µM	–	–	–	–	–	–	–	–	–	–
COc1ccc(-c2nc(-c3ccc(OC)cc3)n(-c3ccccc3)n2)cc1	> 100 µM	> 100 µM	> 100 µM	> 100 µM	> 100 µM	> 100 µM	> 100 µM	> 100 µM	> 100 µM	> 100 µM	–	–	–	–	–	–	–	–	–	–
CCO/C(O)=C(/C(=N)N1CCOCC1)C(=O)Nc1cccc(C(F)(F)F)c1	> 100 µM	> 100 µM	> 100 µM	> 100 µM	> 100 µM	> 100 µM	> 100 µM	> 100 µM	> 100 µM	> 100 µM	–	–	–	–	–	–	–	–	–	–
